Laboratory results taken from PubChem BioAssay (NCI).
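Where inhibition never reached the appropriate level, the endpoint shown equals the highest concentration tested. Otherwise, values were interpolated linearly from a five-concentration, 48-hour dose response in 96-well plates. TGI: concentration producing complete growth inhibition.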

How the values were obtained:
Assay in all cases: NCI anticancer screen, dose series, 48 h
[1] = system: MALME-3M melanoma
[2] = system: LOX IMVI melanoma
[3] = system: SF-268 CNS
[4] = system: HOP-92 NSCLC
[5] = system: NCI-H522 lung
[6] = system: SNB-75 CNS
[7] = system: U251 CNS
[8] = system: IGROV1 ovarian
[9] = system: PC-3 prostate
[10] = system: DU-145 prostate
[11] = system: 786-0 renal
[12] = system: A549 NSCLC
[13] = system: MDA-MB-231 breast
[14] = system: HS 578T breast
[15] = system: A498 renal
[16] = system: MDA-N
[17] = system: OVCAR-8 ovarian
[18] = system: NCI-H226 lung
[19] = system: UO-31 renal
[20] = system: SF-539 CNS
[21] = system: MDA-MB-435
[22] = system: EKVX NSCLC
[23] = system: CAKI-1 renal
[24] = system: RXF 393 renal
[25] = system: SK-MEL-28 melanoma
[26] = system: MOLT-4 leukemia
[27] = system: NCI-H460 lung
[28] = system: SK-MEL-2 melanoma
[29] = system: OVCAR-4 ovarian
[30] = system: T-47D breast
[31] = system: KM12 colon
[32] = system: NCI-H23 lung
[33] = system: UACC-257 melanoma
[34] = system: MCF7 breast
[35] = system: HCC-2998 colon
[36] = system: M14 melanoma
[37] = system: HOP-62 NSCLC
[38] = system: OVCAR-5 ovarian
[39] = system: SN12C renal
[40] = system: HL-60(TB) leukemia
[41] = system: NCI/ADR-RES ovarian
[42] = system: SK-OV-3 ovarian
[43] = system: SK-MEL-5 melanoma
[44] = system: SNB-19 CNS
[45] = system: SR leukemia
[46] = system: K-562 leukemia
[47] = system: TK-10 renal
[48] = system: HT29 colon
[49] = system: COLO 205 colon
[50] = system: CCRF-CEM leukemia
[51] = system: HCT-15 colon
[52] = system: ACHN renal
[53] = system: OVCAR-3 ovarian
[54] = system: SF-295 CNS
[55] = system: SW-620 colon
[56] = system: HCT-116 colon
[57] = system: RPMI-8226 leukemia
[58] = system: BT-549 breast
[59] = system: UACC-62 melanoma

CCOC(=O)C(Cl)(NC(=O)c1ccc(F)cc1)C(F)(F)F (stereo unspecified)
TGI [1]: > 100 µM | TGI [2]: > 100 µM | TGI [3]: > 100 µM | TGI [4]: > 100 µM | TGI [5]: > 100 µM | TGI [6]: > 100 µM | TGI [7]: > 100 µM | TGI [8]: > 100 µM | TGI [9]: > 100 µM | TGI [10]: > 100 µM | TGI [11]: > 100 µM | TGI [12]: > 100 µM | TGI [13]: > 100 µM | TGI [14]: > 100 µM | TGI [15]: > 100 µM | TGI [16]: > 100 µM | TGI [17]: > 100 µM | TGI [18]: > 100 µM | TGI [19]: > 100 µM | TGI [20]: > 100 µM | TGI [21]: > 100 µM | TGI [22]: > 100 µM | TGI [23]: > 100 µM | TGI [24]: > 100 µM | TGI [25]: > 100 µM | TGI [26]: > 100 µM | TGI [27]: > 100 µM | TGI [28]: > 100 µM | TGI [29]: > 100 µM | TGI [30]: > 100 µM | TGI [31]: > 100 µM | TGI [32]: > 100 µM | TGI [33]: > 100 µM | TGI [34]: > 100 µM | TGI [35]: > 100 µM | TGI [36]: > 100 µM | TGI [37]: > 100 µM | TGI [38]: > 100 µM | TGI [39]: > 100 µM | TGI [40]: > 100 µM | TGI [41]: > 100 µM | TGI [42]: > 100 µM | TGI [43]: > 100 µM | TGI [44]: > 100 µM | TGI [45]: > 100 µM | TGI [46]: > 100 µM | TGI [47]: > 100 µM | TGI [48]: > 100 µM | TGI [49]: > 100 µM | TGI [50]: > 100 µM | TGI [51]: > 100 µM | TGI [52]: > 100 µM | TGI [53]: > 100 µM | TGI [54]: > 100 µM | TGI [55]: > 100 µM | TGI [56]: > 100 µM | TGI [57]: > 100 µM

CO/N=C(\C(=O)Nc1cncs1)c1csc(NC(c2ccccc2)(c2ccccc2)c2ccccc2)n1
TGI [1]: > 10 µM | TGI [2]: > 10 µM | TGI [3]: > 10 µM | TGI [4]: > 10 µM | TGI [5]: > 10 µM | TGI [6]: > 10 µM | TGI [7]: > 10 µM | TGI [8]: > 10 µM | TGI [9]: > 10 µM | TGI [10]: > 10 µM | TGI [11]: > 10 µM | TGI [12]: > 10 µM | TGI [14]: > 10 µM | TGI [15]: > 10 µM | TGI [16]: > 10 µM | TGI [17]: > 10 µM | TGI [18]: > 10 µM | TGI [19]: > 10 µM | TGI [20]: > 10 µM | TGI [22]: > 10 µM | TGI [23]: > 10 µM | TGI [24]: > 10 µM | TGI [25]: > 10 µM | TGI [26]: > 10 µM | TGI [27]: > 10 µM | TGI [28]: > 10 µM | TGI [29]: > 10 µM | TGI [30]: > 10 µM | TGI [31]: > 10 µM | TGI [32]: > 10 µM | TGI [33]: > 10 µM | TGI [34]: > 10 µM | TGI [35]: > 10 µM | TGI [36]: > 10 µM | TGI [37]: > 10 µM | TGI [38]: > 10 µM | TGI [39]: > 10 µM | TGI [40]: > 10 µM | TGI [41]: > 10 µM | TGI [58]: > 10 µM | TGI [42]: > 10 µM | TGI [43]: > 10 µM | TGI [44]: > 10 µM | TGI [45]: > 10 µM | TGI [46]: > 10 µM | TGI [47]: > 10 µM | TGI [48]: > 10 µM | TGI [49]: > 10 µM | TGI [50]: > 10 µM | TGI [51]: > 10 µM | TGI [52]: > 10 µM | TGI [53]: > 10 µM | TGI [54]: > 10 µM | TGI [55]: > 10 µM | TGI [56]: > 10 µM | TGI [57]: > 10 µM

CCOc1cc(NC(C)=O)ccc1C(=O)NN1C(=O)C(Oc2ccccc2)C1c1ccc(O)c(OC)c1 (stereo unspecified)
TGI [2]: > 100 µM | TGI [4]: > 100 µM | TGI [6]: > 100 µM | TGI [7]: > 100 µM | TGI [8]: > 100 µM | TGI [9]: > 100 µM | TGI [10]: > 100 µM | TGI [11]: > 100 µM | TGI [12]: > 100 µM | TGI [13]: > 100 µM | TGI [16]: > 100 µM | TGI [17]: 96.8 µM | TGI [18]: > 100 µM | TGI [19]: > 100 µM | TGI [20]: > 100 µM | TGI [21]: > 100 µM | TGI [22]: > 100 µM | TGI [23]: > 100 µM | TGI [24]: > 100 µM | TGI [25]: > 100 µM | TGI [26]: 32.3 µM | TGI [28]: 81.2 µM | TGI [29]: > 100 µM | TGI [30]: 77.9 µM | TGI [31]: > 100 µM | TGI [32]: > 100 µM | TGI [33]: > 100 µM | TGI [34]: > 100 µM | TGI [36]: > 100 µM | TGI [37]: > 100 µM | TGI [38]: > 100 µM | TGI [39]: 99.4 µM | TGI [40]: 44.8 µM | TGI [41]: > 100 µM | TGI [58]: > 100 µM | TGI [42]: > 100 µM | TGI [43]: 49.5 µM | TGI [44]: > 100 µM | TGI [45]: > 100 µM | TGI [46]: > 100 µM | TGI [47]: > 100 µM | TGI [48]: > 100 µM | TGI [49]: 83.9 µM | TGI [50]: 54.5 µM | TGI [51]: > 100 µM | TGI [52]: > 100 µM | TGI [53]: > 100 µM | TGI [54]: > 100 µM | TGI [55]: > 100 µM | TGI [56]: > 100 µM | TGI [57]: 51.6 µM

CSc1ccc(C2C(Cl)C(=O)N2NC(=O)c2c(Cl)c(Cl)c(Cl)c(Cl)c2-c2nc3ccccc3[nH]2)cc1 (stereo unspecified)
TGI [1]: 39.5 µM | TGI [2]: 15.6 µM | TGI [3]: 64.4 µM | TGI [4]: 25.1 µM | TGI [5]: 4.87 µM | TGI [6]: 35.4 µM | TGI [8]: 2.14 µM | TGI [9]: 45.8 µM | TGI [10]: 31.3 µM | TGI [11]: 76.8 µM | TGI [12]: > 100 µM | TGI [14]: > 100 µM | TGI [15]: 72.1 µM | TGI [16]: 87.9 µM | TGI [17]: 59.9 µM | TGI [18]: 38.5 µM | TGI [19]: > 100 µM | TGI [20]: 53.4 µM | TGI [21]: 37 µM | TGI [22]: 37.9 µM | TGI [23]: 42.8 µM | TGI [24]: 5.01 µM | TGI [25]: 44.4 µM | TGI [26]: 68.7 µM | TGI [59]: > 100 µM | TGI [28]: > 100 µM | TGI [30]: 12.3 µM | TGI [31]: 34.8 µM | TGI [32]: 43.1 µM | TGI [33]: 51.3 µM | TGI [34]: > 100 µM | TGI [35]: 37 µM | TGI [36]: 56.7 µM | TGI [37]: > 100 µM | TGI [38]: 53.4 µM | TGI [39]: 37 µM | TGI [40]: 55.1 µM | TGI [41]: > 100 µM | TGI [58]: 48.1 µM | TGI [42]: 93.4 µM | TGI [43]: 35.7 µM | TGI [44]: 73.4 µM | TGI [45]: > 100 µM | TGI [46]: > 100 µM | TGI [48]: > 100 µM | TGI [49]: 40.6 µM | TGI [51]: 60.4 µM | TGI [52]: 71.4 µM | TGI [53]: 50.7 µM | TGI [54]: > 100 µM | TGI [55]: > 100 µM | TGI [56]: 33.7 µM
